Source: patent US7119077B1, “Multimeric forms of members of the steroid/thyroid superfamily of receptors with the ultraspiracle receptor” (The Salk Institute for Biological Studies, priority 1990, dated 2006)

Tests used:
[1] = molecular target: EcR/usp complex (Drosophila melanogaster, UniProt P20153+P34021); settings: cold oligonucleotide competitor, in vitro translated EcR and usp
Protocol: To generate protein in vitro, suitable plasmids for human (h)RARα, hTRB, hVDR, rat PPAR, Drosophila (d)usp and dEcR were linearized with restriction enzyme 3′ of the termination codon. The linearized templates were used for in vitro transcription and then translation using rabbit reticulocyte lysate according to manufacturer's instruction (Promega). […] Schneider cell extracts were prepared following the procedures in Damm et al., Nature Vol. 339:593–597 (1989) and Umesono et al. (1991), supra. The extraction buffer contained 0.4 M KCl in 20 mM HEPES pH 7.5, 20% glycerol, 2 mM DTT and 1 mM PMSF.
For gel mobility shift assay, proteins were incubated with binding buffer, which contained 100 mM KCl, 7.5% glycerol, 20 mM HEPES pH 7.5, 2 mM DTT and 0.1% NP-40, on ice for 20 minutes in the presence of 2 μg of nonspecific competitor poly dI-dC and other oligo competitors. Then approximately 1 ng of ^32P-dCTP probe, which was labelled to specific activity about 1–5×10^8 cpm/μg by fill-in reaction with Klenow fragments, was added to the reaction and incubated at room temperature for 20 minutes. […] The reaction was then loaded into 5% non-denaturing polyacrylamide gel in 0.5×TBE running buffer [1×TBE comprises 0.089 M Tris borate, 0.089 M boric acid and 0.002 M EDTA]. After electrophoresis, the gel was dried for autoradiography.
The ability of EcR/usp complex to recognize this EcRE was examined.

[2] = molecular target: T1, EcR/usp heterodimer (Drosophila melanogaster, UniProt P34021;P20153 P34021:1-878,P20153:1-508); experiment: competition; effective competitor of hsp27-EcRE binding
T1 sequence 1: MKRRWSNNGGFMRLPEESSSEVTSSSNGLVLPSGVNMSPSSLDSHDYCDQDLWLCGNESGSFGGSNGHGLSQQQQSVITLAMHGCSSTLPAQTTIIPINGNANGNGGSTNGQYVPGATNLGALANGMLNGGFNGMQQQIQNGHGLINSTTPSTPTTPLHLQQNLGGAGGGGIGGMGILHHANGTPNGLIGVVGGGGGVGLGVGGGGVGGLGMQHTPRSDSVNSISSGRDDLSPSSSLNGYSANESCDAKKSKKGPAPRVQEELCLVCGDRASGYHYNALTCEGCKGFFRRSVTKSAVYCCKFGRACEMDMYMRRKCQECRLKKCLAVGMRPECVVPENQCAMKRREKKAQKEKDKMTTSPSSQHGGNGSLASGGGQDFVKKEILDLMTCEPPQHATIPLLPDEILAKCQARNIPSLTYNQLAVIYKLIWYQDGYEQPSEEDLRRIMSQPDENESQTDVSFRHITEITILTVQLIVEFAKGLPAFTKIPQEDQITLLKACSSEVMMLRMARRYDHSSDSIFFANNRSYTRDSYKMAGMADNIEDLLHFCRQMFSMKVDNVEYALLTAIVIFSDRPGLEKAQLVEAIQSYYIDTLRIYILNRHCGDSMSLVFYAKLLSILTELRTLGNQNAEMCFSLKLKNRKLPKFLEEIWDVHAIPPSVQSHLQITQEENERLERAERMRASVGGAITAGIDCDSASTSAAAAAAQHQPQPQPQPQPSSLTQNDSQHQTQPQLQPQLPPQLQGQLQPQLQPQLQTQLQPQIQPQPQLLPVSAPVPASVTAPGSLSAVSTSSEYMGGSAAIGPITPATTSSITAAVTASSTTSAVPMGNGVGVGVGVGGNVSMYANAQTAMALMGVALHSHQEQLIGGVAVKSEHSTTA
T1 sequence 2: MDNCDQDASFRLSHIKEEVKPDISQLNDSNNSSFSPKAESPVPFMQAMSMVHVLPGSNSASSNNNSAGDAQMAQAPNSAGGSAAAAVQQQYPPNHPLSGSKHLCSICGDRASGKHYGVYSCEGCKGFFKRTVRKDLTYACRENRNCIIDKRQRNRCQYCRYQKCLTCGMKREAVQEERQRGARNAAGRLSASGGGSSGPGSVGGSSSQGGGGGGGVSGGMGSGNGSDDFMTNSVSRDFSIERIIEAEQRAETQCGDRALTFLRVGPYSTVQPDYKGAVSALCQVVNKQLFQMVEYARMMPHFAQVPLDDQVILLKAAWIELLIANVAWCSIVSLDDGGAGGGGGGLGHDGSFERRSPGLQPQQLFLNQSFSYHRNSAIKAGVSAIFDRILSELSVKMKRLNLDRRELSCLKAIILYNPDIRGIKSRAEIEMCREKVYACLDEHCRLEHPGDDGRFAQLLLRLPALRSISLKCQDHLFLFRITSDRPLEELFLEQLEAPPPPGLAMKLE

Chain of EcR/usp complex (P20153 with tags, fused parts or gaps limits assumed, one chain of several): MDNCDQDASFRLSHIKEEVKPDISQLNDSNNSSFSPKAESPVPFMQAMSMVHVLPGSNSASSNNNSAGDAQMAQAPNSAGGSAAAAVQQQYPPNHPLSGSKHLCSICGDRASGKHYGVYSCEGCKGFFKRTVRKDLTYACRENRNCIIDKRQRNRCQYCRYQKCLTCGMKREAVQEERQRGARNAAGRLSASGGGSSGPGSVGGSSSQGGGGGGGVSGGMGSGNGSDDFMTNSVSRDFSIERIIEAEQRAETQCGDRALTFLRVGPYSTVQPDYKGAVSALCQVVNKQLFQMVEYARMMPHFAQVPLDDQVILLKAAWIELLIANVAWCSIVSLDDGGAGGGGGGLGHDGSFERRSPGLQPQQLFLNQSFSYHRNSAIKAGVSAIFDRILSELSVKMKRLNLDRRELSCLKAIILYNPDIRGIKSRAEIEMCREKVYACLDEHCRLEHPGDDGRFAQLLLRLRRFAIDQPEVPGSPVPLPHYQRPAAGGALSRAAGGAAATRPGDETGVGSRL

Molecule: 11N-EcRE: mutant hsp27-EcRE, two nucleotides at the ends of the palindrome and the flanking sequence changed (DNA ATGCTGTGCATTGAACGTGCTCGA; further chemistry not given here)
- competition of EcR/usp binding to hsp27-EcRE [1]: did not compete

Molecule: Eip28/29-EcRE: EcRE derived from the Drosophila Eip28/29 gene, composite element with direct repeat and degenerated palindromic motif (DNA TAAAGGATCTTGACCCCAATGAACTTCTTA; further chemistry not given here)
- competition of EcR/usp binding to hsp27-EcRE [1]: can effectively compete

Molecule: 15N-EcRE: back mutation of hsp27-EcRE which regenerated the palindrome motif (DNA ATGAAGTGCATTGAACCCGCTCGA; further chemistry not given here)
- competition of EcR/usp binding to hsp27-EcRE [1]: effective competition

B1: 15N-EcRE (dsDNA)
DNA 1: ATGAAGTGCATTGAACCCGCTCGA
DNA 2: TCGAGCGGGTTCAATGCACTTCAT
- binding result [2]: binds
